In patent US20250263404A1, “AMINOPYRIDINES AS ACTIVATORS OF PI3 KINASE” (UCL Business Ltd, priority 2021, published 2025):

What was measured:
[1] = system: adult rat dorsal root ganglion (DRG) cultures; experiment: Neurite outgrowth in dissociated adult rat DRG cultures; format: cell-based; conditions: 72 h
Excerpt: Given that there are currently no small molecule clinical-stage treatments routinely used to stimulate neuronal regeneration such as for injury to peripheral nerves, the spinal cord or optic nerves, we explored the potential of PI3Kα activation in this context.
Dorsal root ganglion (DRG) neurons were isolated from adult male (>250 g) Wistar rats as described, with DRGs from each rat cultured separately (Rayner, M. L. D. et al. Anatomical record 301, 1628-1637 (2018)). Following culling via schedule 1 (rising concentration of CO2), the spinal column was removed and stored in PBS on ice. Cord tissue was removed to expose the DRG and roots in the intervertebral foramen and the DRGS removed with forceps and scalpel under a dissecting microscope (Olympus SZ40). DRGs were manually cleaned by removal of roots, capsule and capillaries with forceps and then placed in DMEM supplemented with P/S. DRGs were treated with 0.125% collagenase type IV solution at 37° C. for 90 min, and then mechanically dissociated by trituration using a 1 ml pipette. The collagenase solution was removed by 2 rounds of centrifugation in complete DMEM (DMEM with 1% P/S and 10% FBS) at 400×g for 5 min, followed by resuspension of the DRG cell pellet in complete DMEM supplemented with 0.01 mM cytosine arabinoside. DRGs were plated in 75-cm^2 flasks coated with 0.1 mg/ml poly-D-lysine and incubated at 37° C., 5% CO2. […]

[2] = system: pAKT^S473 in mouse embryonic fibroblasts (MEFs); experiment: pAKT S473 by Wes western blotting in MEFs; format: cell-based
Excerpt: The inventors next monitored the activation of AKT, the best-known PI3K effector stimulated by PIP3/PI(3,4)P2 production in cells. […] As previously reported, PI3Kα-null MEFs still respond to insulin, but now in a PI3Kβ-dependent manner, as shown by sensitivity of insulin-stimulated pAKT^S473 to the PI3Kβ-selective inhibitor TGX-221 (FIG. 3b). […] Similar observations were made for mTORC1 pathway activation, as measured by S6 (Ser240/44) and 4EBP1 (Ser65) phosphorylation (FIG. 3e). […] Experiments with A549 cells and MEFs were performed separately using slightly different protocols. Briefly, A549 cells were seeded at 200,000 cells per well in 24-well plates in DMEM (10% FBS+1% P/S) and allowed to adhere overnight. The next day, cells were washed once with PBS before addition of serum-free DMEM for 24 h. On the day of treatment, cells were incubated in fresh serum-free DMEM prior to treatment. […]

CCN1CCN(c2ccc(Nc3cc(Nc4cccc5c4N(C(C)=O)CC5)ccn3)cc2)CC1 [Example 1938]
neurite outgrowth ([1]; dose-dependent): significantly increased neurite outgrowth
total length of neurites ([1]; higher 1938 concentrations): doubling the total length of neurites
EC50 ([2]; Mus musculus, Fibroblast, 0.25 h, read-out: EC50 for induction of pAKT, MEFs, 15 min treatment): 2 to 4 µM
pAKT^S473 in PI3Kα-null MEFs ([2]; PI3Kα-null MEFs, 15 min): no pAKT^S473 phosphorylation was observed
